Assay results taken from publication PMC7643960 (PLoS ONE, 2020).
pIC50: −log10 of the molar value. “And” between values parts separate entries of the source, which are not always exact repeats. Equal values may be shown once.

How the values were obtained:
[1] = tested on: primary EMM cells MelDuWi; assay: MTS cytotoxicity assay; assay type: cell-based, horse; settings: for pIC50: mean (95% CI)
Protocol: (§1) All cells used for the experiments originate from different horses. Primary EMM cells (MelDuWi) and primary equine dermal fibroblasts (PriFi1, PriFi2) belong to the cell culture stock of the Clinic for Horses, University of Veterinary Medicine Hannover, Foundation, Hannover, Germany.
(§2) The cytotoxicity of the compounds was assessed by the CellTiter 96® AQueous One Solution Cell Proliferation Assay (MTS) (Promega GmbH, Mannheim, Germany) as reported. In brief, in order to reach cell confluence within 48 h, cells were seeded into 96-well plates in adequate densities (MelDuWi 30,000 cells/well; PriFi1, PriFi2, eRGO1 20,000 cells/well; sRGO1and sRGO2 15,000 cells/well). […] The formazan dye generated by the metabolic active cells was quantified photometrically. Cytotoxicity assays were performed in six to nine biological replicates with two technical replicates for each combination of cell type, incubation time and compound concentration.
(§3) Technical duplicates with a coefficient of variation of more than 20% were excluded from the cell assay analysis. […] Additional statistical data analysis was conducted with R 3.5.1.. A generalized additive model was fitted for each test (MTS and CVS) and cell type comparison (primary EMM cells and fibroblasts, and primary ES cells and fibroblasts) using the ‘mgcv’ package. Compound concentrations and the duration of incubation were modeled as tensor product smooth interacting with compound and cell line. Cell passage was added as a random effect. An appropriate distribution was selected by the visual inspection of residuals. The p-values were obtained by performing a Wald test for each parameter. Statistical significance was set at 0.05.

primary ES cells sRGO2 = assay: MTS cytotoxicity assay; assay type: cell-based, horse; settings: for pIC50: mean (95% CI)
Protocol: as §1, §2, §3

[2] = tested on: primary equine dermal fibroblasts PriFi2; assay: MTS cytotoxicity assay; assay type: cell-based, horse; settings: for pIC50: mean (95% CI)
Protocol: as §1, §2, §3

primary EMM cells eRGO1 = assay: MTS cytotoxicity assay; assay type: cell-based, horse; settings: for pIC50: mean (95% CI)
Protocol: as §1, §2, §3

[3] = tested on: primary equine dermal fibroblasts PriFi1; assay: MTS cytotoxicity assay; assay type: cell-based, horse; settings: for pIC50: mean (95% CI)
Protocol: as §1, §2, §3

primary ES cells sRGO1 = assay: MTS cytotoxicity assay; assay type: cell-based, horse; settings: for pIC50: mean (95% CI)
Protocol: as §1, §2, §3

[4] = tested on: human carbonic anhydrase isoenzyme I; design: method as in PMID 15664816; settings: cited from earlier work
EMM cells MelDuWi [5] = assay: AnnexinV-FITC/propidium iodide staining, flow cytometry; assay type: cell-based, horse; settings: double IC50 concentration
Protocol: (§4) Approximately 7.5 × 10^5 cells (MelDuWi) and 1.0 × 10^6 cells (PriFri2 and sRGO2) were seeded in 25 cm^2 cell culture flasks. […] Following 24 and 48 h of incubation, cells were harvested by mild trypsinization and washed twice with PBS buffer (containing Mg^2+ and Ca^2+). Cells (1.0 × 10^6) were resuspended in AnnexinV binding buffer (BioLegend®, San Diego, US) to a concentration of 1.0 ‧ 10^6 cells/mL. Approximately 100,000 cells were stained with propidium iodide solution ([…], 1 mg/mL) and FITC AnnexinV solution ([…], BioLegend®) for 15 min in the dark at room temperature. After the addition of Annexin V binding buffer ([…]), the suspension was analyzed using the Attune® FACS machine (Life Technologies). After gating for living cells, the data from detectors BL-1A and BL-3A were collected. A total of 20,000 events were collected from each sample and technical duplicates were measured.

ES cells sRGO2 = assay: as above; assay type: cell-based, horse; settings: double IC50 concentration
Protocol: as §4

[6] = tested on: equine dermal fibroblasts PriFri2; assay: as above; assay type: cell-based, horse
Protocol: as §4

[7] = tested on: human carbonic anhydrase isoenzyme IX; design: method as in PMID 15664816; settings: cited from earlier work
EMM cells MelDuWi [8] = settings: read-out: 96-h IC50 value (sulforhodamine B assay); cited from earlier work
mice = settings: cited from earlier work
[9] = tested on: different malignancies in five dogs; settings: cited from earlier work
[10] = tested on: normal human umbilical vein endothelial cells, fibroblasts and keratinocytes; settings: cited from earlier work
[11] = PriFri2, 24 h, double IC50 concentration
[12] = PriFri2, 48 h, double IC50 concentration
[13] = equine dermal fibroblasts, 24 h, versus control

C=C(C)[C@@H]1CC[C@]2(COS(N)(=O)=O)CC[C@]3(C)[C@H](CC[C@@H]4[C@@]5(C)CC[C@H](OS(N)(=O)=O)C(C)(C)[C@@H]5CC[C@]43C)[C@@H]12 [BBS, (3β)-Lup-20(29)-ene-3,28-diol, 3,28-disulfamate]
pIC50 ([1]; 5 h): < 4.00
pIC50 ([1]; 24 h): 4.22
pIC50 ([1]; 48 h): 4.28
pIC50 ([1]; 96 h): 4.49
pIC50 (primary ES cells sRGO2; sRGO2, 5 h): < 4.00
pIC50 (primary ES cells sRGO2; sRGO2, 24 h): 4.35
pIC50 (primary ES cells sRGO2; sRGO2, 48 h): 4.55
pIC50 ([2]; PriFi2, 5 h): < 4.00
pIC50 ([2]; PriFi2, 24 h): 4.11
pIC50 ([2]; PriFi2, 48 h): 4.21
pIC50 ([2]; PriFi2, 96 h): 4.70
pIC50 (primary EMM cells eRGO1; eRGO1, 5 h): < 4.00
pIC50 (primary EMM cells eRGO1; eRGO1, 24 h): 4.33
pIC50 (primary EMM cells eRGO1; eRGO1, 48 h): 4.49
pIC50 (primary EMM cells eRGO1; eRGO1, 96 h): 4.80
pIC50 ([3]; PriFi1, 5 h): < 4.00
pIC50 ([3]; PriFi1, 24 h): 4.23
pIC50 ([3]; PriFi1, 48 h): 4.46
pIC50 ([3]; PriFi1, 96 h): 4.55
pIC50 (primary ES cells sRGO1; sRGO1, 5 h): < 4.00
pIC50 (primary ES cells sRGO1; sRGO1, 48 h): 4.60
inhibition of carbonic anhydrase I [4]: efficient inhibitor
AnnexinV staining: Living cells (EMM cells MelDuWi [5]; 24 h): 77,8%
AnnexinV staining: early apop (EMM cells MelDuWi [5]; 24 h): 6,3%
AnnexinV staining: late apop (EMM cells MelDuWi [5]; 24 h): 15,4%
AnnexinV staining: necrotic (EMM cells MelDuWi [5]; 24 h): 0,6%
AnnexinV staining: Living cells (EMM cells MelDuWi [5]; 48 h): 60,6%
AnnexinV staining: early apop (EMM cells MelDuWi [5]; 48 h): 7,5%
AnnexinV staining: late apop (EMM cells MelDuWi [5]; 48 h): 28.2%
AnnexinV staining: necrotic (EMM cells MelDuWi [5]; 48 h): 3,7%
AnnexinV staining: Living cells (ES cells sRGO2; sRGO2, 24 h): 41,1%
AnnexinV staining: early apop (ES cells sRGO2; sRGO2, 24 h): 19,1%
AnnexinV staining: late apop (ES cells sRGO2; sRGO2, 24 h): 38,5%
AnnexinV staining: necrotic (ES cells sRGO2; sRGO2, 24 h): 1,3%
AnnexinV staining: Living cells (ES cells sRGO2; sRGO2, 48 h): 8,7%
AnnexinV staining: apoptotic cells (early and late) (ES cells sRGO2; sRGO2, 48 h): approximately 90%
AnnexinV staining: early apop (ES cells sRGO2; sRGO2, 48 h): 7,5%
AnnexinV staining: late apop (ES cells sRGO2; sRGO2, 48 h): 82% and 82.1%
AnnexinV staining: necrotic (ES cells sRGO2; sRGO2, 48 h): 1,8%
AnnexinV staining: Living cells [6, 11]: 68,0%
AnnexinV staining: early apop [6, 11]: 8,0%
AnnexinV staining: late apop [6, 11]: 22,4%
AnnexinV staining: necrotic [6, 11]: 1,6%
AnnexinV staining: Living cells [6, 12]: 33,1%
AnnexinV staining: early apop [6, 12]: 9,3%
AnnexinV staining: late apop [6, 12]: 54% and 53.6%
AnnexinV staining: necrotic [6, 12]: 4,1%
increase of early apoptotic cells [6, 13]: 5%
increase of late apoptotic cells [6, 13]: 3%
inhibition of carbonic anhydrase IX [7]: efficient inhibitor

C=C(C)[C@@H]1CC[C@]2(C(=O)OCC(N)(CO)CO)CC[C@]3(C)[C@H](CC[C@@H]4[C@@]5(C)CC[C@H](OC(C)=O)C(C)(C)[C@@H]5CC[C@]43C)[C@@H]12 [NVX-207, 3-acetyl-betulinic acid-2-amino-3-hydroxy-2-hydroxymethyl-propanoate]
pIC50 (EMM cells MelDuWi [8]): 5.25
pIC50 ([1]; 24 h): 4.74
pIC50 ([1]; 48 h): 4.82
pIC50 ([1]; 96 h): 5.10
times more cytotoxic than BBS ([1]; after 48 h, MTS): ~3 times
pIC50 (primary ES cells sRGO2; sRGO2, 5 h): 5.10
pIC50 (primary ES cells sRGO2; sRGO2, 24 h): 5.52
pIC50 (primary ES cells sRGO2; sRGO2, 48 h): 6.00
times more cytotoxic than BBS (primary ES cells sRGO2; sRGO2, after 48 h, MTS): about 25 times
pIC50 ([2]; PriFi2, 5 h): 4.70
pIC50 ([2]; PriFi2, 24 h): 5.15
pIC50 ([2]; PriFi2, 96 h): 5.40
times more cytotoxic than BBS ([2]; PriFi2, after 48 h, MTS): ~9 times
pIC50 (primary EMM cells eRGO1; eRGO1, 5 h): 5.05
pIC50 (primary EMM cells eRGO1; eRGO1, 24 h): 5.15
pIC50 (primary EMM cells eRGO1; eRGO1, 48 h): 5.40
pIC50 (primary EMM cells eRGO1; eRGO1, 96 h): > 6.00
times more cytotoxic than BBS (primary EMM cells eRGO1; eRGO1, after 48 h, MTS): ~8 times
pIC50 ([3]; PriFi1, 5 h): 4.96
pIC50 ([3]; PriFi1, 24 h): 5.40
pIC50 ([3]; PriFi1, 48 h): 6.00
pIC50 ([3]; PriFi1, 96 h): > 6.00
times more cytotoxic than BBS ([3]; PriFi1, after 48 h, MTS): ~34 times
pIC50 (primary ES cells sRGO1; sRGO1, 5 h): 5.05
pIC50 (primary ES cells sRGO1; sRGO1, 24 h): 5.40
pIC50 (primary ES cells sRGO1; sRGO1, 48 h): 5.70
times more cytotoxic than BBS (primary ES cells sRGO1; sRGO1, after 48 h, MTS): about 11 times
side effects after intravenous application (mice): did not lead to any side effects
tolerability of intralesional treatment [9]: well tolerated
tumor response to intralesional treatment [9]: clinically beneficial tumor response was observed
AnnexinV staining: Living cells (EMM cells MelDuWi [5]; 24 h): 48,9%
AnnexinV staining: early apop (EMM cells MelDuWi [5]; 24 h): 20,0%
AnnexinV staining: late apop (EMM cells MelDuWi [5]; 24 h): 30,8%
AnnexinV staining: necrotic (EMM cells MelDuWi [5]; 24 h): 0,3%
AnnexinV staining: Living cells (EMM cells MelDuWi [5]; 48 h): 29,8%
AnnexinV staining: early apop (EMM cells MelDuWi [5]; 48 h): 24,3%
AnnexinV staining: late apop (EMM cells MelDuWi [5]; 48 h): 45% and 44.8%
AnnexinV staining: Living cells (ES cells sRGO2; sRGO2, 24 h): 76,6%
AnnexinV staining: early apop (ES cells sRGO2; sRGO2, 24 h): 3,7%
AnnexinV staining: late apop (ES cells sRGO2; sRGO2, 24 h): 19,1%
AnnexinV staining: necrotic (ES cells sRGO2; sRGO2, 24 h): 0,5%
AnnexinV staining: Living cells (ES cells sRGO2; sRGO2, 48 h): 38,5%
AnnexinV staining: apoptotic cells (early and late) (ES cells sRGO2; sRGO2, 48 h): about 60%
AnnexinV staining: early apop (ES cells sRGO2; sRGO2, 48 h): 12,5%
AnnexinV staining: late apop (ES cells sRGO2; sRGO2, 48 h): 47,9%
AnnexinV staining: apoptotic cells ([6]; PriFi2, 48 h, double IC50 concentration): about 85%
AnnexinV staining: Living cells [6, 11]: 50,0%
AnnexinV staining: early apop [6, 11]: 10,2%
AnnexinV staining: late apop [6, 11]: 37,6%
AnnexinV staining: necrotic [6, 11]: 2,2%
AnnexinV staining: Living cells [6, 12]: 12,3%
AnnexinV staining: early apop [6, 12]: 17,9%
AnnexinV staining: late apop [6, 12]: 67,1%
impact on in vitro survival of normal cells [10]: little impact
